Measured values reported in ChEMBL document CHEMBL4229420, “ROCK inhibitors 2. Improving potency, selectivity and solubility through the application of rationally designed solubilizing groups” (Bioorg Med Chem Lett, 2018).
In brackets after ≈: the same amount, converted by molar mass.

Test: Solubility of the compound in pH 7.4 phosphate buffer
Type: physicochemical
[1] = phosphate buffer, read-out: solubility

| Compound | solubility [1] | solubility (buffer) |
| --- | --- | --- |
| COc1cccc(CC(=O)Nc2nc(-c3ccncc3)cs2)c1 | 22 µM (≈ 7.16 µg/mL) |  |
| CN1CCC(CCCOc2cccc(CC(=O)Nc3nc(-c4ccncc4)cs3)c2)CC1 | > 200 µM |  |
| O=C(Cc1cccc(OCCN2CCNCC2)c1)Nc1nc(-c2ccncc2)cs1 | > 200 µM |  |
| CN1CCN(CCCOc2cccc(CC(=O)Nc3nc(-c4ccncc4)cs3)c2)CC1 |  | > 200 µM |
| O=C(Cc1cccc(OCCCN2CCOCC2)c1)Nc1nc(-c2ccncc2)cs1 | > 200 µM |  |
| CN1CCN(CCOc2cccc(CC(=O)Nc3nc(-c4ccncc4)cs3)c2)CC1 | > 200 µM |  |
| O=C(Cc1cccc(OCCN2CCCCC2)c1)Nc1nc(-c2ccncc2)cs1 | > 200 µM |  |
| O=C(Cc1cccc(OCCCN2CCNCC2)c1)Nc1nc(-c2ccncc2)cs1 | > 200 µM |  |
| O=C(Cc1cccc(OCCN2CCOCC2)c1)Nc1nc(-c2ccncc2)cs1 | > 200 µM |  |
| O=C(Cc1cccc(OCCCN2CCCCC2)c1)Nc1nc(-c2ccncc2)cs1 | > 200 µM |  |
| O=C(Cc1cccc(OCCCC2CCNCC2)c1)Nc1nc(-c2ccncc2)cs1 |  | > 200 µM |
